# Measured values as given in patent US5891620A, “Steroid sulfatase assay” (Imperial College of Science, Technology and Medicine, priority 1994, dated 1999).
# System: Oestrone sulphatase activity in human white blood cells
# Assay: Oestrone sulphatase activity in white blood cells of volunteers after an oral dose of inhibitor
# Assay type: in vivo
# Conditions: two healthy male volunteers; single oral dose 0.5 mg/Kg; white blood cells from blood samples taken for up to 28 days
# Method: Purified leukocytes (according to Tulchinsky JCEM 65, 1026, 1987) from 10 ml whole blood are suspended in 1 ml PBS-sucrose. 0.2 ml of this is used for EST assay as above (incubated for 2 hr at 37° C. in a final volume of 1 ml).
# After incubation, samples are extracted with 4 ml toluene. 2 ml of this is counted in 10 ml Scintillant.
# The assay of the present invention, as described above, was investigated using two healthy, male volunteers whom received an oral dose of a steroid sulphatase inhibitor (Oestrone-3-O-sulphamate, 0.5 mg/Kg). In this regard, white blood cells were prepared from blood samples obtained from the subjects for up to 28 days. […] The results from this study confirm that the measurement of Oestrone Sulphatase activity in white blood cells will therefore allow the extent and duration of sulphatase inhibition to be monitored in subjects receiving steroid sulphatase inhibitors therapeutically. More details and results of these studies are shown in the attached FIG. 30. […] In particular, the assay of the present invention allows one to measure oestrone sulphatase activity in human white blood cells to monitor the extent of oestrone sulphatase inhibition.
compound,measurement,value
C[C@]12CC[C@@H]3c4ccc(OS(N)(=O)=O)cc4CC[C@H]3[C@@H]1CCC2=O [Oestrone-3-O-sulphamate],inhibition of Oestrone sulphatase activity in white blood cells,significant inhibition
